Results taken from ChEMBL document CHEMBL1201862, “PubChem BioAssay data set” (2004).
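Exposure lasted 48 hours, with cells grown in 96-well plates and compounds tested at five concentrations. Here, GI50 denotes the concentration required for 50% inhibition of growth.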 Calls of active or inactive are those of the source. Cut-off read from the data, not from the text of the source: active = GI50 up to about 1.1 µM and inactive = higher.

Columns and labels:
Experiment in all cases: NCI tumour cell line growth inhibition, 48 h
DU-145 = test system: DU-145
UACC-62 = test system: UACC-62
SK-MEL-5 = test system: SK-MEL-5
OVCAR-3 = test system: OVCAR-3
SNB-75 = test system: SNB-75
MDA-MB-231 = test system: MDA-MB-231
SF-268 = test system: SF-268
EKVX = test system: EKVX
LOX IMVI = test system: LOX IMVI
U-251 = test system: U-251
MOLT-4 = test system: MOLT-4
CCRF-CEM = test system: CCRF-CEM
COLO 205 = test system: COLO 205
HCT-116 = test system: HCT-116
PC-3 = test system: PC-3
NCI-H226 = test system: NCI-H226
UO-31 = test system: UO-31
RPMI-8226 = test system: RPMI-8226
HOP-62 = test system: HOP-62
NCI/ADR-RES = test system: NCI/ADR-RES
NCI-H460 = test system: NCI-H460
MDA-N = test system: MDA-N
M14 = test system: M14
Malme-3M = test system: Malme-3M
NCI-H23 = test system: NCI-H23
SF-539 = test system: SF-539
UACC-257 = test system: UACC-257
Hs-578T = test system: Hs-578T
OVCAR-4 = test system: OVCAR-4
SK-MEL-2 = test system: SK-MEL-2
HCC 2998 = test system: HCC 2998
SR = test system: SR
CAKI-1 = test system: CAKI-1
TK-10 = test system: TK-10
RXF 393 = test system: RXF 393
IGROV-1 = test system: IGROV-1
ACHN = test system: ACHN
HT-29 = test system: HT-29
OVCAR-8 = test system: OVCAR-8
A549 = test system: A549
SF-295 = test system: SF-295
T47D = test system: T47D
BT-549 = test system: BT-549
MDA-MB-435 = test system: MDA-MB-435
SW-620 = test system: SW-620
K562 = test system: K562
SK-MEL-28 = test system: SK-MEL-28
OVCAR-5 = test system: OVCAR-5
SN12C = test system: SN12C
SNB-19 = test system: SNB-19
HOP-92 = test system: HOP-92
SK-OV-3 = test system: SK-OV-3
MCF7 = test system: MCF7
KM12 = test system: KM12
NCI-H522 = test system: NCI-H522
HCT-15 = test system: HCT-15
786-0 = test system: 786-0
A498 = test system: A498
HL-60 = test system: HL-60

In the case of `Brc1ccc2c(c1)[C@H]1CCc3c([nH]c4ccccc34)[C@H]1N2`, the GI50 (DU-145) is reported as 12.9 µM (inactive), the GI50 (UACC-62) is reported as 11.5 µM (inactive) and the GI50 (SK-MEL-5) is reported as 3.13 µM (inactive). For the same molecule, the GI50 (OVCAR-3) was 10.6 µM (inactive), the GI50 (SNB-75) was 21.3 µM (inactive) and the GI50 (MDA-MB-231) was 1.6 µM (inactive). For the same molecule, the GI50 (SF-268) was 15.1 µM (inactive), the GI50 (EKVX) was 10.8 µM (inactive) and the GI50 (LOX IMVI) was 4.38 µM (inactive). For the same molecule, the GI50 (U-251) was 10.1 µM (inactive), the GI50 (MOLT-4) was 2.2 µM (inactive) and the GI50 (CCRF-CEM) was 3.91 µM (inactive). For the same molecule, the GI50 (COLO 205) was 11.5 µM (inactive), the GI50 (HCT-116) was 8.49 µM (inactive) and the GI50 (PC-3) was 5.9 µM (inactive). For the same molecule, the GI50 (NCI-H226) was 12.1 µM (inactive), the GI50 (UO-31) was 11.4 µM (inactive) and the GI50 (RPMI-8226) was 4.39 µM (inactive). For the same molecule, the GI50 (HOP-62) was 10.9 µM (inactive), the GI50 (NCI/ADR-RES) was 14.2 µM (inactive) and the GI50 (NCI-H460) was 12.4 µM (inactive). The GI50 (MDA-N) was 14.9 µM (inactive), the GI50 (M14) was 13.2 µM (inactive) and the GI50 (Malme-3M) was 10.7 µM (inactive). For the same molecule, the GI50 (NCI-H23) was 12.4 µM (inactive), the GI50 (SF-539) was 2.36 µM (inactive) and the GI50 (UACC-257) was 12.8 µM (inactive). For the same molecule, the GI50 (Hs-578T) was 25.4 µM (inactive), the GI50 (OVCAR-4) was 13 µM (inactive) and the GI50 (SK-MEL-2) was 16.6 µM (inactive). The GI50 (HCC 2998) was 12.9 µM (inactive), the GI50 (SR) was 0.889 µM (active) and the GI50 (CAKI-1) was 10.2 µM (inactive). The GI50 (TK-10) was 11.2 µM (inactive), the GI50 (RXF 393) was 12 µM (inactive) and the GI50 (IGROV-1) was 0.369 µM (active). The GI50 (ACHN) was 12.5 µM (inactive), the GI50 (HT-29) was 14.1 µM (inactive) and the GI50 (OVCAR-8) was 13.3 µM (inactive). For the same molecule, the GI50 (A549) was 14.8 µM (inactive), the GI50 (SF-295) was 11.6 µM (inactive) and the GI50 (T47D) was 3.11 µM (inactive). The GI50 (BT-549) was 18.4 µM (inactive), the GI50 (MDA-MB-435) was 13.4 µM (inactive) and the GI50 (SW-620) was 14.4 µM (inactive). For the same molecule, the GI50 (K562) was 4.85 µM (inactive), the GI50 (SK-MEL-28) was 14 µM (inactive) and the GI50 (OVCAR-5) was 11.7 µM (inactive). The GI50 (SN12C) was 13 µM (inactive), the GI50 (SNB-19) was 13.7 µM (inactive) and the GI50 (HOP-92) was 13.3 µM (inactive). For the same molecule, the GI50 (SK-OV-3) was 14.3 µM (inactive), the GI50 (MCF7) was 3.42 µM (inactive) and the GI50 (KM12) was 5.31 µM (inactive).

In the case of `O=C(O)c1ccccc1/C=N\N=C1NCCCCN1`, the GI50 (DU-145) is reported as > 100 µM (inactive), the GI50 (UACC-62) is reported as > 100 µM (inactive) and the GI50 (SK-MEL-5) is reported as > 100 µM (inactive). The GI50 (OVCAR-3) was > 100 µM (inactive), the GI50 (SNB-75) was > 100 µM (inactive) and the GI50 (MDA-MB-231) was > 100 µM (inactive). The GI50 (SF-268) was > 100 µM (inactive), the GI50 (EKVX) was > 100 µM (inactive) and the GI50 (LOX IMVI) was > 100 µM (inactive). The GI50 (U-251) was > 100 µM (inactive), the GI50 (MOLT-4) was > 100 µM (inactive) and the GI50 (CCRF-CEM) was > 100 µM (inactive). For the same molecule, the GI50 (COLO 205) was > 100 µM (inactive), the GI50 (HCT-116) was > 100 µM (inactive) and the GI50 (PC-3) was > 100 µM (inactive). The GI50 (NCI-H226) was > 100 µM (inactive), the GI50 (UO-31) was > 100 µM (inactive) and the GI50 (RPMI-8226) was > 100 µM (inactive). For the same molecule, the GI50 (HOP-62) was > 100 µM (inactive), the GI50 (NCI/ADR-RES) was > 100 µM (inactive) and the GI50 (NCI-H460) was > 100 µM (inactive). For the same molecule, the GI50 (NCI-H522) was > 100 µM (inactive), the GI50 (MDA-N) was > 100 µM (inactive) and the GI50 (M14) was > 100 µM (inactive). The GI50 (Malme-3M) was > 100 µM (inactive), the GI50 (NCI-H23) was > 100 µM (inactive) and the GI50 (SF-539) was > 100 µM (inactive). The GI50 (UACC-257) was > 100 µM (inactive), the GI50 (Hs-578T) was > 100 µM (inactive) and the GI50 (OVCAR-4) was > 100 µM (inactive). The GI50 (SK-MEL-2) was > 100 µM (inactive), the GI50 (HCC 2998) was > 100 µM (inactive) and the GI50 (HCT-15) was > 100 µM. The GI50 (SR) was > 100 µM (inactive), the GI50 (CAKI-1) was > 100 µM (inactive) and the GI50 (786-0) was > 100 µM (inactive). For the same molecule, the GI50 (TK-10) was > 100 µM (inactive), the GI50 (A498) was > 100 µM (inactive) and the GI50 (IGROV-1) was > 100 µM (inactive). The GI50 (ACHN) was > 100 µM (inactive), the GI50 (HT-29) was > 100 µM (inactive) and the GI50 (OVCAR-8) was > 100 µM (inactive). The GI50 (A549) was > 100 µM (inactive), the GI50 (SF-295) was > 100 µM (inactive) and the GI50 (T47D) was > 100 µM (inactive). The GI50 (BT-549) was > 100 µM (inactive), the GI50 (MDA-MB-435) was > 100 µM (inactive) and the GI50 (SW-620) was > 100 µM (inactive). For the same molecule, the GI50 (K562) was > 100 µM (inactive), the GI50 (OVCAR-5) was > 100 µM (inactive) and the GI50 (SN12C) was > 100 µM (inactive). For the same molecule, the GI50 (SNB-19) was > 100 µM (inactive), the GI50 (SK-OV-3) was > 100 µM (inactive) and the GI50 (MCF7) was > 100 µM (inactive). For the same molecule, the GI50 (KM12) was > 100 µM (inactive).

For `O=c1c(O)c(-c2cc(O)c(O)cc2O)oc2cc(O)c(C3OC(CO)C(O)C(O)C3O)c(O)c12` (stereo not given), the GI50 (DU-145) was > 100 µM (inactive), the GI50 (UACC-62) was > 100 µM (inactive) and the GI50 (OVCAR-3) was > 100 µM (inactive). For the same molecule, the GI50 (SNB-75) was 45.1 µM (inactive), the GI50 (MDA-MB-231) was > 100 µM (inactive) and the GI50 (SF-268) was > 100 µM (inactive). For the same molecule, the GI50 (EKVX) was > 100 µM (inactive), the GI50 (LOX IMVI) was > 100 µM (inactive) and the GI50 (U-251) was > 100 µM (inactive). For the same molecule, the GI50 (MOLT-4) was > 100 µM (inactive), the GI50 (HCT-116) was > 100 µM (inactive) and the GI50 (PC-3) was > 100 µM (inactive). The GI50 (NCI-H226) was > 100 µM (inactive), the GI50 (UO-31) was > 100 µM (inactive) and the GI50 (RPMI-8226) was > 100 µM (inactive). For the same molecule, the GI50 (HOP-62) was > 100 µM (inactive), the GI50 (NCI/ADR-RES) was > 100 µM (inactive) and the GI50 (HL-60) was > 100 µM (inactive). The GI50 (NCI-H460) was > 100 µM (inactive), the GI50 (NCI-H522) was > 100 µM (inactive) and the GI50 (MDA-N) was > 100 µM (inactive). For the same molecule, the GI50 (M14) was > 100 µM (inactive), the GI50 (SF-539) was > 100 µM (inactive) and the GI50 (UACC-257) was > 100 µM (inactive). The GI50 (Hs-578T) was > 100 µM (inactive), the GI50 (OVCAR-4) was > 100 µM (inactive) and the GI50 (SK-MEL-2) was > 100 µM (inactive). For the same molecule, the GI50 (HCT-15) was > 100 µM, the GI50 (SR) was > 100 µM (inactive) and the GI50 (786-0) was > 100 µM (inactive). The GI50 (TK-10) was > 100 µM (inactive), the GI50 (A498) was > 100 µM (inactive) and the GI50 (IGROV-1) was > 100 µM (inactive). For the same molecule, the GI50 (ACHN) was > 100 µM (inactive), the GI50 (HT-29) was > 100 µM (inactive) and the GI50 (OVCAR-8) was > 100 µM (inactive). For the same molecule, the GI50 (A549) was > 100 µM (inactive), the GI50 (SF-295) was > 100 µM (inactive) and the GI50 (T47D) was > 100 µM (inactive). For the same molecule, the GI50 (BT-549) was > 100 µM (inactive), the GI50 (MDA-MB-435) was > 100 µM (inactive) and the GI50 (SW-620) was > 100 µM (inactive). The GI50 (K562) was > 100 µM (inactive), the GI50 (SK-MEL-28) was > 100 µM (inactive) and the GI50 (OVCAR-5) was > 100 µM (inactive). The GI50 (SN12C) was > 100 µM (inactive), the GI50 (SNB-19) was > 100 µM (inactive) and the GI50 (HOP-92) was > 100 µM (inactive). The GI50 (SK-OV-3) was > 100 µM (inactive), the GI50 (MCF7) was > 100 µM (inactive) and the GI50 (KM12) was > 100 µM (inactive).
